Our source for the Activity, inhibition and IC50 values is ChEMBL document CHEMBL3244110, “Synthesis and biological evaluation of some 2-amino-4-aryl-3H-1,5-benzodiazepine analogues of clozapine” (J Med Chem, 1978).

Activity calls are given as the source filed them. The rule behind the calls is not given here.

The subject of data set [1] is Mus musculus. Briefly: Antipsychotic activity in mouse assessed as protection against amphetamine-induced lethality at 5 mg/kg, ip treated 30 mins before amphetamine challenge. The data set is classed as functional, organism-based. The arrangement: dose 5 mg/kg.
The subject of data set [2] is Mus musculus. Briefly: Antipsychotic activity in mouse assessed as increase in brain dopamine turnover at 25 to 30 mg/kg, ip pretreated with 200 mg/kg, ip alpha-methyl-p-tyrosine tyrosine hydroxylase inhibitor. The data set is classed as functional, organism-based.
Data set [3] concerns Rattus norvegicus. Briefly: Antipsychotic activity in 0.2 mA footshock-induced conditioned stimulus rat assessed as decrease in avoidance response at 20 mg/kg, ip after 30 mins. Also noted: dose 20 mg/kg. The data set is classed as functional, organism-based.
In data set [4] the test system is Rattus norvegicus. Briefly: Antipsychotic activity in 0.2 mA footshock-induced conditioned stimulus rat assessed as decrease in avoidance response at 5 mg/kg, ip after 30 mins. Also noted: dose 5 mg/kg. Type of data set: functional, organism-based.
Data set [5] has as its system Mus musculus. Briefly: Antipsychotic activity in mouse assessed as protection against amphetamine-induced lethality at 50 mg/kg, ip treated 30 mins before amphetamine challenge. Type of data set: functional, organism-based. Also noted: dose 50 mg/kg.
For data set [6], the system named is Mus musculus. Briefly: Toxicity in mouse assessed as depression at 50 mg/kg, ip. Type of data set: organism-based. Also noted: dose 50 mg/kg, route intraperitoneal. The note with it: in vivo.
Data set [7] has as its target Adenylate cyclase (Rattus norvegicus) (UniProt D4A3N4+P26770+Q04400+P26769+Q03343+P40146+Q8CFM9+P21932). Briefly: Inhibition of dopamine-sensitive rat brain adenylyl cyclase activity assessed as cAMP level at 10^-4 M.
In data set [8] the test system is Mus musculus. Briefly: Toxicity in mouse assessed as ptosis at 50 mg/kg, ip. The data set is classed as organism-based. The arrangement: dose 50 mg/kg, route intraperitoneal. The note with it: in vivo.
The target of data set [9] is Adenylate cyclase. Briefly: Inhibition of dopamine-sensitive rat brain adenylyl cyclase activity assessed as cAMP level.

As to `c1ccc(C2=Nc3ccccc3N=C(N3CCCCC3)C2)cc1`, the result in data set [1], in data set [2], in data set [3], in data set [4] and in [5] was inactive.
As for `FC(F)(F)c1ccc(C2CCN(C3=Nc4ccccc4N=C(c4ccccc4)C3)CC2)cc1`, the result in [1] was Active. For the same compound, the result in [2], in data set [3], in data set [4] and in [5] was inactive. In data set [6], the Activity result is reported as “Toxic”. Further, the inhibition entry in [7] is “inactive”.
`CN1CCN(C2=Nc3ccccc3N=C(c3ccc(Cl)cc3)C2)CC1`: the result in data set [1], in [2], in [3], in [4] and in data set [5] was inactive.
In the case of `C1=C(c2ccccc2)CCN(C2=Nc3ccccc3N=C(c3ccccc3)C2)C1`, the result in [1], in data set [2], in data set [3], in data set [4] and in [5] was inactive. For the same compound, in data set [7], the inhibition entry was “inactive”.
`Clc1ccc2c(c1)N=C(N1CCC(c3ccccc3)CC1)CC(c1ccccc1)=N2`: the Activity result in data set [8] is given as “Toxic”. Further, the result in data set [1], in data set [2], in data set [3], in data set [4] and in [5] was inactive. Moreover, the inhibition result in [7] is “inactive”.
For the compound `CN(C)CCCN1c2ccccc2Sc2ccc(Cl)cc21`, the outcome in data set [1], in [2] and in data set [5] was Active.
In the case of `COc1ccc(C2=Nc3ccccc3N=C(N3CCN(C)CC3)C2)cc1`, the result in data set [1], in [3], in data set [4] and in data set [5] was inactive.
`c1ccc(C2=Nc3ccccc3N=C(N3CCN(c4ccccc4)CC3)C2)cc1`: the result in [1], in [2], in [3], in data set [4] and in [5] was inactive.
As to `CN(C)C1=Nc2ccccc2N=C(c2ccccc2)C1`, the Activity result in data set [8] is recorded as “Toxic”. For the same compound, the result in data set [1], in data set [2], in [3], in data set [4] and in [5] was inactive.
On to `Cc1ccc(C2=Nc3ccccc3N=C(N3CCN(C)CC3)C2)cc1`, for which the outcome in data set [1], in data set [3], in [4] and in [5] was inactive.
`COc1ccc(C2=Nc3ccccc3N=C(N3CCC(c4ccccc4)CC3)C2)cc1`: the result in [1], in [2], in [3], in data set [4] and in data set [5] was inactive.
`CSc1ccc2c(c1)N(CCC1CCCCN1C)c1ccccc1S2` (stereo unspecified): the outcome in data set [2] was Active.
With `c1ccc(C2=Nc3ccccc3N=C(N3CCC(C(c4ccccc4)c4ccccc4)CC3)C2)cc1`, the Activity entry in data set [8] is “Toxic”. Besides, the result in data set [1], in [2], in data set [3] and in data set [4] was inactive. Moreover, the outcome in data set [5] was Active.
With `FC(F)(F)c1ccc(C2=CCN(C3=Nc4ccccc4N=C(c4ccccc4)C3)CC2)cc1`, the outcome in data set [1], in [2], in [3], in [4] and in data set [5] was inactive. For the same compound, the inhibition entry in [7] is “inactive”.
Consider `c1ccc(C2=Nc3ccccc3N=C(N3CCC(N4CCCCC4)CC3)C2)cc1`, for which the outcome in data set [1], in data set [3], in data set [4] and in [5] was inactive. The outcome in data set [2] was Active. For the same compound, the inhibition entry in data set [7] is “inactive”.
Turning to `c1ccc(C2=Nc3ccccc3N=C(N3CCOCC3)C2)cc1`, the outcome in data set [1], in [2], in data set [3], in data set [4] and in data set [5] was inactive.
In the case of `COc1ccc(C2CCN(C3=Nc4ccccc4N=C(c4ccccc4)C3)CC2)cc1`, the outcome in data set [1], in [2], in data set [3], in data set [4] and in data set [5] was inactive. In data set [7], the inhibition result is “inactive”.
For `CN1CCN(C2=Nc3cc(Cl)ccc3N=C(c3ccccc3)C2)CC1`, the result in [1] was Active. The result in data set [2], in data set [3], in data set [4] and in data set [5] was inactive.
In the case of `c1ccc(C2=Nc3ccccc3N=C(N3CCCC3)C2)cc1`, the outcome in data set [1], in data set [2], in [3], in [4] and in data set [5] was inactive.
Consider `Cc1ccc(C2=Nc3ccccc3N=C(N3CCC(c4ccccc4)CC3)C2)cc1`, for which the outcome in data set [1], in data set [2], in data set [3], in data set [4] and in data set [5] was inactive.
In the case of `CN1CCN(C2=Nc3ccccc3N=C(c3ccccc3)C2)CC1`, the Activity entry in data set [8] and in data set [6] was “Toxic” each time. The outcome in data set [1], in data set [3], in data set [4] and in data set [5] was inactive. Also, the result in [2] was Active. Also, the inhibition entry in data set [7] is “inactive”.
`c1ccc(CC2CCN(C3=Nc4ccccc4N=C(c4ccccc4)C3)CC2)cc1`: the Activity result in [8] is “Toxic”. For the same compound, the outcome in data set [1] and in data set [5] was Active. Further, the outcome in data set [2], in data set [3] and in data set [4] was inactive.
For the compound `OCCN1CCN(CCCN2c3ccccc3Sc3ccc(C(F)(F)F)cc32)CC1`, the outcome in data set [1] and in [5] was Active.
With `O=C(CCCN1CCC(O)(c2ccc(Cl)cc2)CC1)c1ccc(F)cc1` [HALOPERIDOL], the result in data set [1], in data set [2] and in [5] was Active. The IC50 (as a rule, the concentration that inhibits the measured activity by half) in data set [9] stood at 2.3 µM.
Take `Cc1cc2c(cc1C)N=C(N1CCN(C)CC1)CC(c1ccc(F)cc1)=N2`: the outcome in data set [1], in data set [3], in data set [4] and in [5] was inactive.
For `CN(CCO)C1=Nc2ccccc2N=C(c2ccccc2)C1`, the result in [1], in data set [2], in data set [3], in data set [4] and in data set [5] was inactive.
For the compound `Clc1ccc(C2=CCN(C3=Nc4ccccc4N=C(c4ccccc4)C3)CC2)cc1`, the Activity result in data set [8] and in [6] was “Toxic” throughout. For the same compound, the result in data set [1], in [3], in [4] and in [5] was inactive. Also, the outcome in [2] was Active. In addition, in data set [7], the inhibition entry is “inactive”.
With `Clc1ccc(C2=Nc3ccccc3N=C(N3CCC(c4ccccc4)CC3)C2)cc1`, the Activity result in data set [8] and in data set [6] was “Toxic” throughout. In addition, the result in [1], in data set [2], in data set [3], in data set [4] and in [5] was inactive.
Turning to `FC(F)(F)c1cccc(C2CCN(C3=Nc4ccccc4N=C(c4ccccc4)C3)CC2)c1`, in data set [8], the Activity entry is “Toxic”. Moreover, the outcome in data set [1], in data set [2], in data set [3], in [4] and in data set [5] was inactive. For the same compound, the inhibition entry in data set [7] is “inactive”.
For the compound `Cc1cc2c(cc1C)N=C(N1CCC(c3ccccc3)CC1)CC(c1ccccc1)=N2`, the result in data set [1], in [2], in [3], in [4] and in [5] was inactive. In addition, the inhibition entry in data set [7] is “inactive”.
For the compound Butaclamol, the result in [1] and in [5] was Active.
